Assay results taken from patent US20220177818A1, “OPERATION PROCESS FOR A CELL CULTIVATION SYSTEM” (THE AUTOMATION PARTNERSHIP (CAMBRIDGE ) LTD., priority 2019, published 2022).

System: fucosyltransferase
Experiment: Feedback experiment: glycan profile of the monoclonal antibody from parallel CHO-bioreactor cultivations after feeding the inhibitor
Format: cell-based
Conditions: Day 12 (end of cultivation), inhibitor in feed once per day from day 4; average of all 3 cultivations; relative to total measured glycans
Source text: In said experiment, parallel CHO-bioreactor cultivations producing a monoclonal antibody were started.
Values are in relative to the total amount of measured glycans. The different glycan profile abbreviations are explained in FIG. 7B. […] A decision was taken to reduce the fucosylated species, for example in order to increase ADCC potency (see e.g. Peipp et al 2008).
For this reason, the feeding strategy was adapted to contain an inhibitor of fucosyltransferase (2F-Peracetly-Fucose) in the feed (73). The feed was administered once per day throughout the experiment. Process samples were taken at the end of cultivation (day 12) and analyzed to check for the effect of the altered feeding strategy and compared to data from standard cultivations (74).

percentage distribution of analyzed glycans: FA2: 7,3%
percentage distribution of analyzed glycans: FA2G1: 2,6%
percentage distribution of analyzed glycans: FA2G2: 0,26%
SMILES: CC(=O)OC1O[C@@H](C)[C@@H](OC(C)=O)[C@@H](OC(C)=O)[C@@H]1F (stereo partly drawn) [2F-Peracetly-Fucose, 2F-Peracetyl-Fucose]
